Test results reported in patent US6818446B2, “Compositions and methods for the analysis of mucin gene expression and identification of drugs having the ability to inhibit mucin gene expression” (The Regents of the University of California, priority 2001, dated 2004).
“Also recorded” adds a separate entry of the source.

Legend:
MUC5B-b2 promoter = test: Effect of culture conditions and retinoic acid on MUC5B-b2 promoter-reporter activity in primary human TBE cells; format: cell-based; settings: retinoic acid 30 nM
Method: For studying the effects of culture conditions on the promoter-reporter gene activity, primary human TBE cultures were grown in 60 mm dishes and transfected with 1 μg of MUC5B promoter-luciferase construct DNA and 0.5 μg pSV-β-gal expression vector. One day following the transfection, cultures were passaged into either 35 mm tissue culture dishes or into collagen gel-coated 25 mm Transwell™ chambers (Coming-COSTAR Catalog Number 3506). Additionally, the cultures were maintained either in the absence or presence of supplemental all-trans-retinoic acid (30 nM). For Transwell™ cultures, chambers were maintained in an air-liquid interface for an additional three days. Cell extracts were prepared and luciferase and β-galactosidase activities were analyzed as described above. For each transfection, relative luciferase activity was expressed after normalization for β-galactosidase activity. The results are presented as a mean of relative activities from at least triplicate dishes, and data is collected from at least three independent experiments. Activity is expressed as units of luciferase activity per unit of β-gal activity (units/beta-gal). […] Results are expressed as “fold increase” of luciferase activity, comparing RA-treated and RA-untreated cultures, where the activity of the RA untreated culture is set to 1. […]

MUC5B message = test: Northern blot analysis of MUC5B message in primary TBE cell cultures; settings: primary human TBE cells, presence vs absence of 30 nM retinoic acid
MUC5B promoter [1] = test: MUC5B-b2 luciferase reporter activity in primary TBE cultures derived from transgenic mice; format: cell-based; settings: transgenic mouse TBE cells; cytokine 10 ng/ml, 7 days
Method: The transgenic mice described in EXAMPLE 9 were used to isolate TBE cells, which were maintained in culture. The TBE cells were maintained in three culture conditions, which were control (no supplement), with interleukin-6 (IL-6) at a concentration of 10 ng/ml or with IL-17 at a concentration of 10 ng/ml. The cells were maintained in the presence of the cytokines for 7 days, harvested and cell extracts were prepared as described in EXAMPLE 8. The luciferase activity in each cell extract was determined, and normalized for total protein concentration of the extract samples.

MUC5B promoter [2] = test: Luciferase activity in stably transfected HBE1 cells carrying the MUC5B promoter reporter; format: cell-based, human; settings: cytokine 10 ng/ml
Method: Experimental—The established cell line HBE1 was cultured in 35 mm dishes and grown to 60-80% confluence. These cells were cotransfected with either MUC-5B reporter construct and a second plasmid encoding the neomycin-resistance (neo) selectable marker. The chimeric reporter plasmids used in the transfections were purified using QIAGEN® plasmid isolation kits, and the cotransfections were done using Roche FuGENE 6™ transfection reagent (Roche Molecular Biochemicals, Indianapolis, Ind.) according to the manufacturer's instructions. In these transfections, 2.5 μg of MUC5B reporter plasmid DNA and 0.5 μg of the neomycin resistance marker plasmid per 35 mm culture dish were used for each transfection.
Following the cotransfection, cells were cultured for an additional 48 to 72 hours. At this time, the medium was replaced with fresh medium containing the neomycin analogue G-418 at a concentration of 100 μg/ml. The selection was maintained for approximately 21 days, at which time clones of resistant transfected cells were replated and maintained as continuous lines. Cell extracts were prepared and luciferase activity quantitated exactly as described in EXAMPLE 8, with the exception that cell extracts were normalized for total protein content, and not β-galactosidase activity. In addition, these cells were cultured in the absence or presence of IL-6 (10 ng/ml) or IL-17 (10 ng/ml).

Row | Molecule | MUC5B-b2 reporter gene activity, RA-treated vs RA-untreated, tissue culture dishes (TC) (MUC5B-b2 promoter; TC) | MUC5B-b2 reporter gene activity, fold increase RA-treated vs RA-untreated, BICG conditions (MUC5B-b2 promoter; collagen gel-coated Transwell chambers, air-liquid interface) | levels of MUC5B message in BI and BICG cultures (MUC5B message; Transwell chambers (BI) or collagen gel-coated Transwell chambers (BICG)) | levels of MUC5B message in TC and CG cultures (MUC5B message; tissue culture dishes (TC) or collagen gel coated dishes (CG)) | MUC5B promoter activity (luciferase normalized for total protein) vs control without interleukin (MUC5B promoter [1]) | luciferase reporter activity in presence vs absence of cytokine (MUC5B promoter [2])
1 | CC1=C(/C=C/C(C)=C/C=C/C(C)=C/C(=O)O)C(C)(C)CCC1 [retinoic acid, all-trans-retinoic acid] | not affected | five-fold | greatly enhanced | unaffected |  | 
2 | IL-6: pro-inflammatory cytokine interleukin-6 added to cell cultures |  |  |  |  | significant upregulation | strongly induced; also recorded: upregulated
3 | IL-17: pro-inflammatory cytokine IL-17 added to cell cultures |  |  |  |  | significant upregulation | strongly induced; also recorded: upregulated
